Laboratory results as given in BindingDB's records for patent US20250248973 (Corbus Pharmaceuticals, 2025).

Target: Isoform 3 of Cannabinoid receptor 1 (Human, UniProt P21554)
Test: Biochemical Assay
Method: hCB1/hCB1 b Gai Cyclic AMP (cAMP) Assays: Cells were seeded in a 384-well plate at an appropriate density from frozen cells. The cAMP assays were performed according to the manufacturer's protocol using MULTISCREEN™ TR-FRET cAMP 1.0 No Wash Assay Kit. Cells (hCB1 or hCB1 b) were pre-incubated with customer compounds for 30 minutes at rt followed by addition of EC80 CP55940 concentration and Forskolin. Cells were then incubated for 20 minutes at 37C. The reaction was terminated by sequentially adding sequentially adding MULTISCREEN™ Eu-labeled cAMP and MULTISCREEN™ 650-labeled anti-cAMP antibody in lysis buffer. The plate was then incubated at rt for 30 minutes before reading fluorescent emissions at 620 nm and 665 with excitation at 314 nm on FlexStation III (Molecular Devices).

Chain of Isoform 3 of Cannabinoid receptor 1 (P21554 as listed by the source): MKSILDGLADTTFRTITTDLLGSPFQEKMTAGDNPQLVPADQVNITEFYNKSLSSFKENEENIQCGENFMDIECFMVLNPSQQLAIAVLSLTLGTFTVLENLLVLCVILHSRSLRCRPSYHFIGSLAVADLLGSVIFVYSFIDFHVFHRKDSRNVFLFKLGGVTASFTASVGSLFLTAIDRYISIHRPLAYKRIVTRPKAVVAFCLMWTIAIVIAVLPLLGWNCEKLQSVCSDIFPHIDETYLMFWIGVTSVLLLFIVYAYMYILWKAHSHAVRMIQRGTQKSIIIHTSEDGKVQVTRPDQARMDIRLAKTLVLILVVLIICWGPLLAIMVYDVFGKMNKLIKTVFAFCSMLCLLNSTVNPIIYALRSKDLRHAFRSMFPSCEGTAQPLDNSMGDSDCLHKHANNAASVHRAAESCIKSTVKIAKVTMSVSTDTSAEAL

C#Cc1cccc(S(=O)(=O)N=C(NCCS(N)(=O)=O)N2C[C@H](c3ccccc3)C(c3ccc(Cl)cc3)=N2)c1 [US20250248973, Compound 35]
IC50: < 100 nM
